Experimental data: patent US11878984B2, “Compounds derived from Streptomyces and uses thereof” (KOREA INSTITUTE OF OCEAN SCIENCE & TECHNOLOGY, priority 2018, dated 2024)

Key:
BV-2 microglial cells [1] = assay: Nitrite assay: LPS-stimulated NO production in BV-2 microglial cells; type: cell-based; conditions: for NO production decreased compared to the control group: 100 μM compound
Experimental: (§1) BV-2 microglial cells were cultured in Dulbecco's modified Eagle medium supplemented with 5% Fetal bovine serum and 1% 100 units/mL of penicillin/streptomycin at 37° C. in a humidified 5% CO2 incubator.
For Nitrite assay, the BV-2 microglial cells seeded at a density of 1.25×10^5 cell/each well in 24-well plate were pretreated with various concentrations of compounds 1-4 for 1 h, followed by LPS (200 ng/mL) for 24 h. A range of sodium nitrite dilutions was used to obtain a standard curve with the amount of nitrite in each sample. Absorbance was determined at 540 nm using a microplate reader (Tecan Trading AG).

BV-2 microglial cells [2] = assay: MTT assay: cell viability of LPS-stimulated BV-2 microglial cells; type: cell-based
Experimental: as §1
The BV-2 microglial cells seeded at a density of 1.25×10^5 cell/each well in 24-well plate were pretreated with various concentration of compounds (12.5, 25, 50, and 100 μM for compounds 1-3 and 1, 2, 4, and 8 μM for compound 4) for 1 h, followed by LPS (200 ng/mL) for 24 h. 20 μL of MTT (2 mg/mL) solution was added to each well. After 1 h, the supernatant was sucked out and crystals of formazan were dissolved in DMSO. Optical density was measured at 550 nm using a microplate reader (Tecan Trading AG) and values were determined in comparison to control cells.

[3] = pretreated 1 h, then LPS (200 ng/mL) 24 h

Row | Structure (SMILES) | NO production decreased compared to the control group (BV-2 microglial cells [1]; [3]) | NO production reduced compared to the control group (BV-2 microglial cells [1]; compound at low concentration of 1 to 8 μM, pretreated 1 h, then LPS (200 ng/mL) 24 h) | NO production inhibiting effect (BV-2 microglial cells [1]; low concentration of less than 10 μM) | cellular viability (BV-2 microglial cells [2]; 1, 2, 4 and 8 μM, pretreated 1 h, then LPS (200 ng/mL) 24 h, MTT, compared to control cells) | cytotoxicity (BV-2 microglial cells [2]; low concentration of less than 10 μM, BV-2 microglial cells (FIG. 12))
1 | C/C=C/C=C/CC[C@]12OCC[C@@H]3OC[C@](O)(CO1)[C@@H]32 [Compound 1, (2aS,2a^1R,4aS,7aS)-7a-((3E,5E)-hepta-3,5-diene-1-yl)tetrahydro-2H,6H,1,4,7-trioxacyclopenta[cd]indene-2a(3H)-ol] | about 22% |  |  |  | 
2 | C/C=C/C=C/C=C/[C@]12OCC[C@@H]3OC[C@](O)(CO1)[C@@H]32 [Compound 2, (2aS,2a^1R,4aS,7aS)-7a-((1E,3E,5E)-hepta-1,3,5-triene-1-yl)tetrahydro-2H, 6H,1,4,7-trioxacyclopenta[cd]indene-2a(3H)-ol] | about 25% |  |  |  | 
3 | C/C=C/C=C/CC[C@]12OCC[C@@H]3OC[C@](OC(=O)c4ccccc4N)(CO1)[C@@H]32 [Compound 3, (2aS,2a^1R,4aS,7aS)-7a-((3E,5E)-hepta-3,5-diene-1-yl)tetrahydro-2H,6H,1,4,7-trioxacyclopenta[cd]indene-2a(3H)-yl-2-aminobenzoate] | about 50% |  |  |  | 
4 | C/C=C/C=C/C=C/[C@]12OCC[C@@H]3OC[C@](OC(=O)c4ccccc4N)(CO1)[C@@H]32 [Compound 4, (2aS,2a^1R,4aS,7aS)-7a-((1E, 3E,5E)-hepta-1,3,5-triene-1-yl)tetrahydro-2H, 6H,1,4,7-trioxacyclopenta[cd]indene-2a(3H)-yl-2-aminobenzoate] |  | about 93% | strong NO production inhibiting effect | less than 80% | cytotoxicity
